Measurements: patent US20120122716A1, “CELL LINE DERIVED FROM THE EPITHELIAL LINING OF THE HUMAN ENDOLYMPHATIC SAC IN THE INNER EAR” (priority 2010, published 2012)

What was measured:
AQP2 = test: RT-PCR analysis of AQP2 expression in ES cells; format: cell-based; details: immortalized human ES epithelial cells
Description: The inner ear can function properly only if the chemical equilibrium and volume of inner ear fluids are maintained. The disruption of inner ear homeostasis results in many inner ear disorders such as Meniere's disease. The endolymphatic sac (ES) is believed to be involved in homeostasis of endolymph such as ion and fluid regulation. Aquaporins (AQPs) function like a molecular water valve, allowing water to move along a specific direction. AQP1, 2, 3, 4, and 6 are all found in the ES and may have an important role in endolymph fluid homeostasis. […] Taken together, our findings indicate that ES epithelial cells are invovled in homeostasis of endolymph through regulation of AQP2 and AQP3. We believe that our ES cell line will provide an in vitro model enabling us to better understand the molecular pathogeneis of Meniere's disease.

ES cells = test: Water permeability of ES cells (fluorescence-quenching assay); format: cell-based; details: immortalized human ES epithelial cells
Method: For water permeability measurement, an ES cell line is plated in 96-well clear bottom of black-walled microplates (Costar) at a density of 20000 cells per well in F-12 Ham's medium supplemented with 10% FBS and 0.5 mg/mL G418. After incubation at 37° C. in an atmosphere containing 5% CO2 with 90% humidity for 18 h, the cells in 96-well plates are washed twice in PBS buffer (200 μL/wash), leaving 100 μL PBS after the last wash. Measurement is performed on a FLUOstar Optima plate reader (BMG Technology) equipped with syringe pumps and excitation and emission filters. Cells in each well of the plate are assayed individually for osmotically driven (e.g., aquaporin-mediated), water influx across the plasma membrane that dilutes the cytoplasmic Cl^− by recording fluorescence increase continuously (0.2 s per point) for 2 s (baseline) and then for 21 s (water transport into the cells) after rapid injection (<1 s) of 100 μL distilled water. Water permeability is expressed as half time (t1/2) from water injection to the point when the cytoplasmic fluorescence reaches the maximum. A smaller t1/2 represents a higher water permeability.
The inner ear can function properly only if the chemical equilibrium and volume of inner ear fluids are maintained. The disruption of inner ear homeostasis results in many inner ear disorders such as Meniere's disease. […]

HESC-1 cells = test: Secretion of viscous substance by HESC-1 cells; format: cell-based, human
Description: For example, viscosity of the substance derived from the cells can be measured using an Ubbelohde viscometer (VWR) after collection of the supernatant. Osmolality of the substance can be measured using a freezing point osmometer (Precision Systems, Natick, MA). To determine the factors influencing secretion of osmotically active and viscous substances, the cells can be cultured using a serum-free medium with deficiency of a specific factor such as retinoic acid, hydrocortisone and triiodothronine.
(§1) Regulatory mechanisms involved in secretion and biological functions of these molecules can be determined. The HESC-1 cells provides a basis for an in vitro model for the studies of secretory function of the ES.

[1] = test system: mucin core proteins and hyaluronic acid synthases; test: qRT-PCR analysis of mucin core proteins and hyaluronic acid synthases in HESC-1 cells; format: cell-based, human
Description: We identified hyaluronic acid among the osmotically active substances derived from our ES cell line. Three isoforms of hyaluronic acid synthases (HASs) are identified in humans. For example, transcriptional regulation of each HAS can be determined using real-time quantitative RT-PCR analysis after extraction of total RNAs from the ES cell line. Protein levels of each HAS can be measured using immunobloting after extraction of total proteins from the ES cell line. To determine the factors regulating each HAS, the cells can be cultured using a serum-free medium with deficiency of a specific factor such as retinoic acid, hydrocortisone and triiodothronine.
as §1

## NC(=O)CC[C@@H]1NC(=O)[C@H](Cc2ccccc2)NC(=O)[C@H](Cc2ccc(O)cc2)NC(=O)[C@@H](N)CSSC[C@@H](C(=O)N2CCC[C@H]2C(=O)N[C@@H](CCCN=C(N)N)C(=O)NCC(N)=O)NC(=O)[C@H](CC(N)=O)NC1=O [vasopressin]
AQP2
  AQP2 expression (RT-PCR): up-regulation
ES cells
  water permeability of ES cells upon exposure: affected

## EGF: human epidermal growth factor (EGF) (NSDSECPLSHDGYCLHDGVCMYIEALDKYACNCVVGYIGERCQYRDLKWWELR; UniProt P01133 971-1023, looked up)
HESC-1 cells
  secretion of viscous substance: secrete viscous substance
[1]
  expression of mucin core proteins and hyaluronic acid synthases (qRT-PCR): up-regulate
